Assay results taken from patent US9422238B2, “ICMT inhibitors” (National University of Singapore, priority 2012, dated 2016).
Like-named read-outs stand apart in the source and are kept apart here.

Tests used:
[1] = tested on: MDA-MB-231 human breast cells; assay: Antiproliferative activity / cell viability (MTS, 72 h)
Protocol: (§1) The relative number of the live cells was determined using the CellTiter® 96 AQueous One Solution Cell Proliferation Assay (Promega). Determinations were made in duplicates or triplicates.
Human breast cancer MDA-MB231, liver cancer HepG2 and lung fibroblast cells were purchased from ATCC (Rockville, Md.). MDA-MB231 cells and IMR-90 cells were grown in DMEM (Sigma Aldrich, Singapore) and EMEM (Sigma Aldrich, Singapore) respectively at 37° C., 5% CO2. DMEM was supplemented with 10% fetal bovine serum (Invitrogen, heat treated at 65 deg C., 30 min), 50 units/L penicillin-G and 50 μg/mL streptomycin. EMEM was supplemented with 10% fetal bovine serum (heat treated as above), 100 mg/L penicillin-G and 100 μg/mL streptomycin.
Cell viability was assessed using CellTitre 96® Aqueous One Solution (Promega, Madison, Wis.) containing the tetrazolium salt 3-(4,5-dimethylthiazol-2-yl)-5-(3-carboxymethoxyphenyl)-2-(4-sulfophenyl)-2H-tetrazolium (MTS). […] Final concentration of DMSO per well was maintained at 0.5% v/v. […] Cell viability was determined from the expression:
The plot was constrained to ≧0 and ≦100%. At least 3 independent determinations of IC50 were made using two different stock solutions of test compound.

[2] = tested on: PC3 Prostrate cancer cells; assay: as above; format: cell-based, human
Protocol: as §1

[3] = read-out: IC50MDA-MB-231, Table 3, 72 h, mean (SD)
[4] = Table 3, 72 h, mean (SD), read-out: IC50 PC3
[5] = Homo sapiens, MDA-MB-231, 72 h, read-out: IC50MDA-MB-231 (μM)
[6] = Homo sapiens, PC-3M, Table 3, 72 h, mean (SD), read-out: IC50 PC3
[7] = Homo sapiens, MDA-MB-231, read-out: IC50 (μM) MDA-MB231
[8] = Homo sapiens, Table 5, read-out: IC50 (μM) PC 3

SMILES | IC50 [1, 7] | IC50 [2, 8] | other results
CCCCCCCCn1cc(CN(CC)CC)c2cc(-c3cccc(OC(F)(F)F)c3)ccc21 [Compound 8-6] | – | – | IC50 [1, 3]: 7.17 µM; IC50 [2, 4]: 11.2 µM
CCCCCCCCn1c2c(c3cc(F)ccc31)CN(C)CC2 [Compound 199, 8-fluoro-2-methyl-5-n-octyl-1,2,3,4-tetrahydropyrido[4,3-b]indole] | – | – | IC50 [1, 5]: 19.2 µM; IC50 [2, 6]: 15.5 µM
CCCCCCCCn1c2c(c3cc(F)ccc31)CN(Cc1ccc(O)cc1)CC2 [Compound 205, 8-fluoro-2-(4′-hydroxybenzyl)-5-n-octyl-1,2,3,4-tetrahydropyrido[4,3-b]indole] | 10.5 ± 0.08 µM | 10.5 ± 0.28 µM | IC50 [1, 5]: 10.5 µM; IC50 [2, 6]: 10.5 µM
CCCCCCCCn1c2c(c3cc(-c4cccc(C)c4)ccc31)CN(Cc1ccc(O)cc1)CC2 [Compound 240, 2-(4′-hydroxybenzyl)-8-m-tolyl-5-n-octyl-1,2,3,4-tetrahydropyrido[4,3-b]indoles] | – | – | IC50 [1, 3]: 14.8 µM; IC50 [2, 4]: 10.2 µM
CC(C)=CCn1c2c(c3cc(-c4cccc(C)c4)ccc31)CN(Cc1ccc(O)cc1)CC2 [Compound 300, 2-(4′-hydroxybenzyl)-5-isoprenyl-8-m-tolyl-1,2,3,4-tetrahydropyrido[4,3-b]indoles] | 9.38 ± 0.92 µM | 13.3 ± 5.7 µM | IC50 [1, 5]: 9.38 µM; IC50 [2, 6]: 13.3 µM
CCCCCCCCn1c2c(c3cc(-c4ccc(S(C)(=O)=O)cc4)ccc31)CN(C)CC2 [Compound 306, 2-methyl-8-(4′-(methylsulfonyl)phenyl)-5-n-octyl-1,2,3,4-tetrahydropyrido[4,3-b]indole] | – | – | IC50 [1, 5]: 4.6 µM; IC50 [2, 6]: 5.38 µM
CCCCCCCCn1c2c(c3cc(-c4cnc(N)nc4)ccc31)CNCC2 [Compound 309, 8-(2′-amino-pyrimidin-5-yl)-5-n-octyl-1,2,3,4-tetrahydropyrido[4,3-b]indole] | – | – | IC50 [1, 5]: 2.72 µM; IC50 [2, 6]: 4.44 µM
CCCCCCCCn1c2c(c3cc(-c4ccc(S(C)(=O)=O)cc4)ccc31)CNCC2 [Compound 314, 8-(4′-(methylsulfonyl)phenyl)-5-n-octyl-1,2,3,4-tetrahydropyrido[4,3-b]indole] | – | – | IC50 [1, 5]: 2.1 µM; IC50 [2, 6]: 2.92 µM
CCCCCCCCn1c2c(c3cc(-c4ccnc(F)c4)ccc31)CNCC2 [Compound 315, 8-(2′-fluoropyridin-4-yl)-5-n-octyl-1,2,3,4-tetrahydro-1H-pyrido[4,3-b]indole] | – | – | IC50 [1, 3]: 4.59 µM; IC50 [2, 4]: 7.69 µM
CCCCCCCCn1c2c(c3cc(-c4cccc(C)c4)ccc31)CN(Cc1ccccc1)CC2 [cpd 214] | 8.6 ± 1.68 µM | 10.9 ± 2.31 µM | –
CCCCCCCCn1cc(C(=O)C(N)=O)c2cc(-c3cccc(C)c3)ccc21 [cpd 273] | > 50 µM | 16.7 ± 1.68 µM | –
CCCCCCCCn1c2c(c3cc(-c4cnc(N)nc4)ccc31)CN(C(N)=O)CC2 [cpd 319] | – | 9.43 ± 3.85 µM | –
CCCCCCCCn1c2c(c3cc(-c4cccc(C)c4)ccc31)CN(C(N)=O)CC2 [cpd 321] | – | 10.5 ± 3.08 µM | –
CCCCCCCCn1c2c(c3cc(-c4ccnc(F)c4)ccc31)CN(C(N)=O)CC2 [cpd 323] | – | 10.2 ± 3.63 µM | –
CCCCCCCCn1c2c(c3cc(-c4ccc(S(C)(=O)=O)cc4)ccc31)CN(C(N)=O)CC2 [cpd 324] | – | 8.88 ± 0.62 µM | –
CCCCCCCCn1c2c(c3cc(-c4cnc(N)nc4)ccc31)CN(C(C)C)CC2 [cpd 474] | 9.17 ± 0.54 µM | 9.32 ± 0.65 µM | –
CCCCCCCCn1c2c(c3cc(-c4cnc(N)nc4)ccc31)CN(C(=O)OCC)CC2 [cpd 480] | 17 µM | 21.3 µM | –
CCCCCCCCn1c2c(c3cc(-c4cccc(C)c4)ccc31)CN(C(=O)OCC)CC2 [cpd 481] | 25.9 µM | 30.1 µM | –
CCCCCCCCn1c2c(c3cc(-c4cnc(N)nc4)ccc31)CN(S(C)(=O)=O)CC2 [cpd 488] | 27.4 µM | – | –
CCCCCCCCn1c2c(c3cc(-c4cnc(N)nc4)ccc31)CN(CC)CC2 [cpd 490] | 5.85 µM | – | –
CCCCCCCCn1c2c(c3cc(-c4cnc(N)nc4)ccc31)CN(CCO)CC2 [cpd 510] | 3.42 ± 0.72 µM | 3.97 ± 0.42 µM | –
CCCCCCCCn1cc(CC(N)=O)c2cc(-c3cnc(N)nc3)ccc21 [cpd 512] | > 50 µM | > 50 µM | –
